Laboratory results taken from publication PMC10888192, “New Derivatives of 1-(3-Methyl-1-Benzofuran-2-yl)Ethan-1-one: Synthesis and Preliminary Studies of Biological Activity” (International Journal of Molecular Sciences, 2024).
Values after ≈ are worked out from the molar mass of the structure shown.

Columns and labels:
[1] = tested on: HaCaT cells (human immortal keratinocytes); test: MTT cytotoxicity assay, HaCaT; assay type: cell-based; settings: 72 h incubation, mean ± SD
Experimental: (§1) The cell viability was analyzed at the following six concentrations of compounds: 5, 10, 20, 40, 60 and 100 µM after 72 h incubation.
(§2) Additionally, to determine the safety profile of the tested compounds, the therapeutic index (TI) (the ratio of IC50 value in HaCaT to cancer cells K562) was calculated. […] The goal of conducting the MTT assay in this research was to select benzofuran derivatives, which manage to reduce viability of cancer cells while exposing mild effects on normal healthy cells.
(§3) The cytotoxicity was evaluated by MTT reduction assay, which measures mitochondrial respiratory function. The test was performed based on the method described by Präbst et al.. Cells (1 × 10^4/well), in logarithmic phase, were seeded into 96-well plates in appropriate medium. After 24 h, cells were exposed to test compounds. […] After 72 h, the medium with the compounds was completely removed and MTT solution (0.5 mg/mL) in fresh medium without serum was added to each well. Plates with cells were incubated for 4 h at 37 °C in the dark. Then, MTT solution was removed and replenished with 0.1 mL DMSO: isopropanol (1:1) mixture to dissolve the generated formazan crystals. The optical density was measured with a […] GO (ThermoScientific) microplate reader at 570 nm. Replicates of three wells for each dosage, including vehicle control, were analyzed for each experiment. The experiments were conducted in triplicate. Control cells which were only treated with respective medium were used as the 100% viability value. […] Additionally, to determine the safety profile of the test compounds, therapeutic indexes (TI) (the ratio of IC50 values in HaCat to cancer cells (K562, PC3, SW620, Cack-1)) were calculated.

[2] = tested on: K562 cells (human chronic myelogenous leukemia); test: MTT cytotoxicity assay, K562; assay type: cell-based; settings: 72 h incubation, mean ± SD
Experimental: as §1, §2, §3

[3] = tested on: SW620 cells (human metastatic colon cancer); test: MTT cytotoxicity assay, SW620; assay type: cell-based; settings: SW-620, 72 h incubation, mean ± SD
Experimental: as §1, §2, §3

[4] = tested on: Cacki-1 cells (human clear cell renal cell carcinoma); test: MTT cytotoxicity assay, Cacki-1; assay type: cell-based; settings: 72 h incubation
Experimental: as §1, §2, §3

[5] = tested on: PC3 cells (human metastatic prostate cancer); test: MTT cytotoxicity assay, PC3; assay type: cell-based; settings: PC-3, 72 h incubation, mean ± SD
Experimental: as §1, §2, §3

[6] = tested on: clinical strains; test: organism not typed; assay type: cell-based; settings: read-out: MIC clinical strains
Experimental: (§4) The antimicrobial activity of compounds was expressed by minimum inhibitory concentration values (MICs), according to CLCI reference procedures with some modifications. MIC was tested by the two-fold serial microdilution method (in 96-well microtiter plates) on MH II liquid medium. The final inoculum of all of the studied bacteria was 10^6 CFU/mL (colony forming unit per mL). The stock solution of tested compounds was prepared in DMSO and was diluted in sterile medium (to a maximum of 1% of solvent content). The concentrations of compounds were from 16 to 512 µg/mL. […] Clinical microorganisms used in this study were obtained from the collection of the Department of Pharmaceutical Microbiology, Medical University of Warsaw, Poland [70, 71].

[7] = tested on: S. epiderminis ATCC 122228; test: MIC, microdilution; assay type: cell-based; settings: Staphylococcus epidermidis, ATCC122228, 18 h, read-out: MIC S. epiderminis ATCC 122228
Experimental: (§5) The antimicrobial studies for all of the obtained compounds were conducted using reference strains of bacteria derived from international microbe collections—the American Type Culture Collection (ATCC) and the National Collection of Type Culture (NCTC). Among the reference strains there were two Gram-negative rods (P. aeruginosa ATCC 15442 and E. coli ATCC 25922) and six Gram-positive isolates (Staphylococcus aureus: NCTC 4163, ATCC 25923, ATCC 6538, ATCC 29213, S. epidermidis ATCC 12228, ATCC 35984).
as §4

[8] = tested on: E. coli ATCC 25922; test: MIC, microdilution; assay type: cell-based; settings: Escherichia coli, ATCC25922; 18 h, 35 °C, MH II medium
Experimental: as §5, §4

[9] = tested on: P. aeruginosa ATCC 15442; test: MIC, microdilution; assay type: cell-based; settings: Pseudomonas aeruginosa, ATCC15442; 18 h, 35 °C, MH II medium
Experimental: as §5, §4

[10] = tested on: S.aureus NCTC 29213; test: MIC, microdilution; assay type: cell-based; settings: Staphylococcus aureus, NCTC29213, 18 h, read-out: MIC S.aureus NCTC 29213
Experimental: as §5, §4

[11] = tested on: S.aureus ATCC 6538; test: MIC, microdilution; assay type: cell-based; settings: Staphylococcus aureus, ATCC6538; 18 h, 35 °C, MH II medium
Experimental: as §5, §4

[12] = tested on: S.aureus NCTC 4163; test: MIC, microdilution; assay type: cell-based; settings: Staphylococcus aureus, NCTC4163; 18 h, 35 °C, MH II medium
Experimental: as §5, §4

[13] = tested on: S.aureus ATCC 25923; test: MIC, microdilution; assay type: cell-based; settings: Staphylococcus aureus, ATCC25923; 18 h, 35 °C, MH II medium
Experimental: as §5, §4

[14] = tested on: S. epidermidis ATCC 35984; test: MIC, microdilution; assay type: cell-based; settings: Staphylococcus epidermidis, ATCC35984; 18 h, 35 °C, MH II medium
Experimental: as §5, §4

[15] = tested on: HL-60 leukemic cell line; set-up: method as in PMID 20657389, PMID 25482722, PMID 30465514, PMID 31003438; settings: lead compound; ref [32],[33],[34],[35]; cited from earlier work
[16] = tested on: HeLa cancer cells; set-up: method as in PMID 20657389, PMID 25482722, PMID 30465514, PMID 31003438; settings: lead compound; ref [32],[33],[34],[35]; cited from earlier work
[17] = tested on: K562 leukemic cell line; set-up: method as in PMID 20657389, PMID 25482722, PMID 30465514, PMID 31003438; settings: lead compound; ref [32],[33],[34],[35]; cited from earlier work

With `COc1cc(OC)c2c(C)c(C(C)=O)oc2c1` [Compound 2, 1-(4,6-Dimethoxy-3-Methyl-1-Benzofuran-2-yl)Ethanone] the IC50 [1] was 67.3 ± 29.7 µM, the IC50 [2] was 36.3 ± 4.5 µM and the IC50 [3] was > 100 µM. The IC50 [4] was > 100 µM, the melting point was 115 to 118 °C and the IC50 [5] was > 100 µM.

With `CCOc1ccc2c(CBr)c(C(C)=O)oc2c1` [Compound 9, 1-[3-(Bromomethyl)-6-Ethoxy-1-Benzofuran-2-yl]Ethanone] the IC50 [1] was 22.8 ± 1.51 µM, the IC50 [2] was 14.4 ± 3.7 µM and the IC50 [3] was > 100 µM. The IC50 [4] was > 100 µM, the melting point was 98 to 105 °C and the IC50 [5] was 40 ± 20 µM.

With `COc1cc2oc(C(C)=O)c(CBr)c2c(OC)c1Br` [Compound 7, 1-[5-Bromo-3-(Bromomethyl)-4,6-Dimethoxy-1-Benzofuran-2-yl]Ethanone] the MIC [6] was > 250 µg/mL, the MIC [7] was 16 µg/mL (≈ 40.8 µM) and the MIC [8] was > 512 µg/mL. The MIC [9] was > 512 µg/mL, the MIC [10] was 32 µg/mL (≈ 81.6 µM) and the MIC [11] was 64 µg/mL (≈ 163 µM). The MIC [12] was > 512 µg/mL, the MIC [13] was 16 µg/mL (≈ 40.8 µM) and the MIC [14] was 16 µg/mL (≈ 40.8 µM). It also gave an IC50 [1] of 5.69 ± 5.67 µM, an IC50 [2] of 50 ± 10 µM and an IC50 [3] of 47.1 ± 22.2 µM. For the same molecule, the IC50 [4] was > 100 µM, the melting point was 165 to 171 °C and the IC50 [5] was 40 ± 15 µM.

With `COc1ccc2oc(C(C)=O)c(CBr)c2c1` [Compound 5, 1-[3-(Bromomethyl)-5-Methoxy-1-Benzofuran-2-yl]Ethanone] the IC50 [1] was 15 ± 0.8 µM, the IC50 [2] was 10.3 ± 0.55 µM and the IC50 [3] was 15.6 ± 4.1 µM. For the same molecule, the IC50 [4] was > 100 µM, the melting point was 103 to 106 °C and the IC50 [5] was 17.5 ± 3.5 µM.

With `COc1ccc2oc(C(C)=O)c(C)c2c1` [Compound 1, 1-(5-Methoxy-3-Methyl-1-Benzofuran-2-yl)Ethanone] the IC50 [1] was > 100 µM, the IC50 [2] was 57 ± 3.5 µM and the IC50 [3] was > 100 µM. The IC50 [4] was > 100 µM, the melting point was 93 to 96 °C and the IC50 [5] was 80 ± 20 µM.

Molecule `COc1cccc2c1C(=O)c1c(O)c3c(c(O)c1C2=O)C[C@@](O)(C(=O)CO)C[C@@H]3O[C@H]1C[C@H](N)[C@H](O)[C@H](C)O1` [Doxorubicin, reference compound] has an IC50 [2] of 0.21 ± 0.1 µM.

For `COc1cc2c(CBr)c(C(C)=O)oc2c(C(C)=O)c1OC` [1,1′-[3-(bromomethyl)-5,6-dimethoxy-1-benzofuran-2,7-diyl]diethanone], the IC50 [15] is listed as 0.1 µM, the “Toxicity toward HeLa cancer cells” value [16] is listed as “exhibiting toxicity toward neither HeLa cancer cells” and the IC50 [17] is listed as 5 µM.

For `CCOc1cccc2oc(C(C)=O)c(C)c12` [Compound 3, 1-(4-Ethoxy-3-Methyl-1-Benzofuran-2-yl)Ethanone], the IC50 [1] was > 100 µM, the IC50 [2] was 58 ± 21.1 µM and the IC50 [3] was 52.3 ± 22.5 µM. The IC50 [4] was > 100 µM, the melting point was 60 to 65 °C and the IC50 [5] was 66.4 ± 28.7 µM.

With `CC(C)C[C@H](NC(=O)[C@H](Cc1ccccc1)NC(=O)c1cnccn1)B(O)O` [Bortezomib, reference compound] the IC50 [2] was 0.04 ± 0.01 µM.

In the case of `CCOc1ccc2c(C)c(C(C)=O)oc2c1` [Compound 4, 1-(6-Ethoxy-3-Methyl-1-Benzofuran-2-yl)Ethanone], the IC50 [1] is reported as 55.3 ± 33.4 µM, the IC50 [2] is reported as 60 ± 9 µM and the IC50 [3] is reported as > 100 µM. For the same molecule, the IC50 [4] was > 100 µM, the melting point was 86 to 90 °C and the IC50 [5] was > 100 µM.
